*1 amine or outer side, *2 acyl side, *3 side chain or, on linkers, in order; H or OH if unused. Where a SMILES comes first, the peptide text is derived from it. Bridges are numbered along the chain shown (N, C = ends). [ ]: non-standard residue; d: D form. X5 = O=C(O)CC[C@H](N[*:1])C(=O)C1C[C@H](O)C[C@H]1C(=O)[*:2]; Hyp = O=C(O)[C@@H]1C[C@@H](O)CN1; NMeNle = CCCC[C@H](NC)C(=O)O; NMeA = CN[C@@H](C)C(=O)O; Orn = NCCC[C@H](N)C(=O)O; Dab = NCC[C@H](N)C(=O)O; Dap = NC[C@H](N)C(=O)O
target: T1, Human PD-L1/PD-1 (Homo sapiens, UniProt Q9NZQ7); assay: HTRF Human PD-L1/PD-1 binding assay (PD-1-Ig/PD-L1-His); settings: PD-L1-His 10 nM, PD-1-Ig 20 nM; class symbol; read-out: HTRF Human PD-L1/PD-1 Binding Assay IC50 Range
T1 construct: TVMV protease cleavage site (C); made in house; host or cells: HEK293T cells
T1 sequence (Q9NZQ7 with tags, fused parts or gaps): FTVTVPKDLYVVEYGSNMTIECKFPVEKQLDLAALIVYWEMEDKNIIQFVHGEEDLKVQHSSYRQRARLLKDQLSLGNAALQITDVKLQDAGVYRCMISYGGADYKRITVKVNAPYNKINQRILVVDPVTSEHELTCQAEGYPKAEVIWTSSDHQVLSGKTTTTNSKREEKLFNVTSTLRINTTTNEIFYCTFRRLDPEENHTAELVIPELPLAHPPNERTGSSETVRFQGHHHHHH
Procedure, shortened: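 Soluble HEK293T-expressed proteins: hPD-L1-His 10 nM, hPD-1-Ig 20 nM final. Cpd + PD-L1 15 min, + PD-1 15 min, + Eu anti-Ig 1 nM/APC anti-His 20 nM 30 min. Buffer dPBS, 0.1% BSA, 0.05% Tween-20. TR-FRET 665/620.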

IC50 | Structure (SMILES)
1 to 9.9 nM | CCCC[C@H]1C(=O)N(C)[C@@H](CCCC)C(=O)N[C@@H](CCCN)C(=O)N[C@H](C(=O)NCC(N)=O)CSCC(=O)N[C@@H](Cc2ccc(OC)cc2)C(=O)N(C)[C@@H](C)C(=O)N[C@@H](CC(N)=O)C(=O)N2CCC[C@H]2C(=O)N[C@@H](Cc2cnc[nH]2)C(=O)N[C@@H](CCC(=O)O)C(=O)C2C[C@H](O)C[C@H]2C(=O)N[C@@H](Cc2c[nH]c3ccccc23)C(=O)N[C@@H](CCN)C(=O)N[C@@H](Cc2c[nH]c3ccccc23)C(=O)N1C (stereo partly drawn) [Example 7087] ({CH2CO}-Y(Me)[NMeA]NPH[X5]W[Dab]W[NMeNle][NMeNle][Orn]CG-NH2; thioether N-13)
1 to 9.9 nM | CCCC[C@H]1C(=O)N(C)[C@@H](CCCC)C(=O)N[C@@H](CCCN)C(=O)N[C@H](C(=O)NCC(N)=O)CSCC(=O)N[C@@H](Cc2ccc(OC)cc2)C(=O)N(C)[C@@H](C)C(=O)N[C@@H](CC(=O)O)C(=O)N2CCC[C@H]2C(=O)N[C@@H](CN)C(=O)N[C@@H](CCCCN)C(=O)N2C[C@H](O)C[C@H]2C(=O)N[C@@H](Cc2c[nH]c3ccccc23)C(=O)N[C@@H](CCN)C(=O)N[C@@H](Cc2c[nH]c3ccccc23)C(=O)N1C [Example 7089] ({CH2CO}-Y(Me)[NMeA]DP[Dap]K[Hyp]W[Dab]W[NMeNle][NMeNle][Orn]CG-NH2; thioether N-14)
1 to 9.9 nM | CCCC[C@H]1C(=O)N(C)[C@@H](CCCC)C(=O)N[C@@H](CCCN)C(=O)N[C@H](C(=O)NCC(N)=O)CSCC(=O)N[C@@H](Cc2ccc(OC)cc2)C(=O)N(C)[C@@H](C)C(=O)N[C@@H](CCN)C(=O)N2CCC[C@H]2C(=O)N[C@@H](Cc2cnc[nH]2)C(=O)N[C@@H](CCC(=O)O)C(=O)N2C[C@H](O)C[C@H]2C(=O)N[C@@H](Cc2c[nH]c3ccccc23)C(=O)N[C@@H](CCN)C(=O)N[C@@H](Cc2c[nH]c3ccccc23)C(=O)N1C [Example 7090] ({CH2CO}-Y(Me)[NMeA][Dab]PHE[Hyp]W[Dab]W[NMeNle][NMeNle][Orn]CG-NH2; thioether N-14)
1 to 9.9 nM | CCCC[C@H]1C(=O)N(C)[C@@H](CCCC)C(=O)N[C@@H](CCCN)C(=O)N[C@H](C(=O)NCC(N)=O)CSCC(=O)N[C@@H](Cc2ccc(OC)cc2)C(=O)N(C)[C@@H](C)C(=O)N[C@@H](CC(N)=O)C(=O)N2CCC[C@H]2C(=O)N[C@@H](CN)C(=O)N[C@@H](CCC(=O)O)C(=O)N2C[C@H](O)C[C@H]2C(=O)N[C@@H](Cc2c[nH]c3ccccc23)C(=O)N[C@@H](CCN)C(=O)N[C@@H](Cc2c[nH]c3ccccc23)C(=O)N1C [Example 7091] ({CH2CO}-Y(Me)[NMeA]NP[Dap]E[Hyp]W[Dab]W[NMeNle][NMeNle][Orn]CG-NH2; thioether N-14)
10 to 99.9 nM | CCCC[C@H]1C(=O)N(C)[C@@H](CCCC)C(=O)N[C@@H](CCCN)C(=O)N[C@H](C(=O)NCC(N)=O)CSCC(=O)N[C@@H](Cc2ccc(OC)cc2)C(=O)N(C)[C@@H](C)C(=O)N[C@@H](CCN)C(=O)N2CCC[C@H]2C(=O)N[C@@H](CN)C(=O)N[C@@H](CCC(=O)O)C(=O)N2C[C@H](O)C[C@H]2C(=O)N[C@@H](Cc2c[nH]c3ccccc23)C(=O)N[C@@H](CCN)C(=O)N[C@@H](Cc2c[nH]c3ccccc23)C(=O)N1C [Example 7092] ({CH2CO}-Y(Me)[NMeA][Dab]P[Dap]E[Hyp]W[Dab]W[NMeNle][NMeNle][Orn]CG-NH2; thioether N-14)
1 to 9.9 nM | CCCC[C@H]1C(=O)N(C)[C@@H](CCCC)C(=O)N[C@@H](CCCN)C(=O)N[C@H](C(=O)NCC(N)=O)CSCC(=O)N[C@@H](Cc2ccc(OC)cc2)C(=O)N(C)[C@@H](C)C(=O)N[C@@H](CC(N)=O)C(=O)N2CCC[C@H]2C(=O)N[C@@H](Cc2cnc[nH]2)C(=O)N[C@@H](CCCCN)C(=O)N2C[C@H](O)C[C@H]2C(=O)N[C@@H](Cc2c[nH]c3ccccc23)C(=O)N[C@@H](CCN)C(=O)N[C@@H](Cc2c[nH]c3ccccc23)C(=O)N1C [Example 7093] ({CH2CO}-Y(Me)[NMeA]NPHK[Hyp]W[Dab]W[NMeNle][NMeNle][Orn]CG-NH2; thioether N-14)
1 to 9.9 nM | CCCC[C@H]1C(=O)N(C)[C@@H](CCCC)C(=O)N[C@@H](CCCN)C(=O)N[C@H](C(=O)NCC(N)=O)CSCC(=O)N[C@@H](Cc2ccc(OC)cc2)C(=O)N(C)[C@@H](C)C(=O)N[C@@H](CC(=O)O)C(=O)N2CCC[C@H]2C(=O)N[C@@H](Cc2cnc[nH]2)C(=O)N[C@@H](CCCCN)C(=O)N2C[C@H](O)C[C@H]2C(=O)N[C@@H](Cc2c[nH]c3ccccc23)C(=O)N[C@@H](CCN)C(=O)N[C@@H](Cc2c[nH]c3ccccc23)C(=O)N1C [Example 7094] ({CH2CO}-Y(Me)[NMeA]DPHK[Hyp]W[Dab]W[NMeNle][NMeNle][Orn]CG-NH2; thioether N-14)
1 to 9.9 nM | CCCC[C@H]1C(=O)N(C)[C@@H](CCCC)C(=O)N[C@@H](CCCN)C(=O)N[C@H](C(=O)NCC(N)=O)CSCC(=O)N[C@@H](Cc2ccc(OC)cc2)C(=O)N(C)[C@@H](C)C(=O)N[C@@H](CCN)C(=O)N2CCC[C@H]2C(=O)N[C@@H](Cc2cnc[nH]2)C(=O)N[C@@H](CCCCN)C(=O)N2C[C@H](O)C[C@H]2C(=O)N[C@@H](Cc2c[nH]c3ccccc23)C(=O)N[C@@H](CCN)C(=O)N[C@@H](Cc2c[nH]c3ccccc23)C(=O)N1C [Example 7095] ({CH2CO}-Y(Me)[NMeA][Dab]PHK[Hyp]W[Dab]W[NMeNle][NMeNle][Orn]CG-NH2; thioether N-14)
1 to 9.9 nM | CCCC[C@H]1C(=O)N(C)[C@@H](CCCC)C(=O)N[C@@H](CCCN)C(=O)N[C@H](C(=O)NCC(N)=O)CSCC(=O)N[C@@H](Cc2ccc(OC)cc2)C(=O)N(C)[C@@H](C)C(=O)N[C@@H](CC(N)=O)C(=O)N2CCC[C@H]2C(=O)N[C@@H](Cc2cnc[nH]2)C(=O)N[C@@H](CCC(=O)O)C(=O)N2C[C@H](O)C[C@H]2C(=O)N[C@@H](Cc2c[nH]c3ccccc23)C(=O)N[C@@H](CC(=O)O)C(=O)N[C@@H](Cc2c[nH]c3ccccc23)C(=O)N1C [Example 7097] ({CH2CO}-Y(Me)[NMeA]NPHE[Hyp]WDW[NMeNle][NMeNle][Orn]CG-NH2; thioether N-14)
1 to 9.9 nM | CCCC[C@H]1C(=O)N(C)[C@@H](CCCC)C(=O)N[C@@H](CCCN)C(=O)N[C@H](C(=O)NCC(N)=O)CSCC(=O)N[C@@H](Cc2ccc(OC)cc2)C(=O)N(C)[C@@H](C)C(=O)N[C@@H](CC(=O)O)C(=O)N2CCC[C@H]2C(=O)N[C@@H](Cc2cnc[nH]2)C(=O)N[C@@H](CCC(=O)O)C(=O)N2C[C@H](O)C[C@H]2C(=O)N[C@@H](Cc2c[nH]c3ccccc23)C(=O)N[C@@H](CCN)C(=O)N[C@@H](Cc2c[nH]c3ccccc23)C(=O)N1C [Example 7098] ({CH2CO}-Y(Me)[NMeA]DPHE[Hyp]W[Dab]W[NMeNle][NMeNle][Orn]CG-NH2; thioether N-14)
10 to 99.9 nM | CCCC[C@H]1C(=O)N(C)[C@@H](CCCC)C(=O)N[C@@H](CCCN)C(=O)N[C@H](C(=O)NCC(N)=O)CSCC(=O)N[C@@H](Cc2ccc(OC)cc2)C(=O)N(C)[C@@H](C)C(=O)N[C@@H](CC(=O)O)C(=O)N2CCC[C@H]2C(=O)N[C@@H](Cc2cnc[nH]2)C(=O)N[C@@H](CCC(=O)O)C(=O)N2C[C@H](O)C[C@H]2C(=O)N[C@@H](Cc2c[nH]c3ccccc23)C(=O)N[C@@H](CC(=O)O)C(=O)N[C@@H](Cc2c[nH]c3ccccc23)C(=O)N1C [Example 7099] ({CH2CO}-Y(Me)[NMeA]DPHE[Hyp]WDW[NMeNle][NMeNle][Orn]CG-NH2; thioether N-14)
1 to 9.9 nM | CCCC[C@H]1C(=O)N(C)[C@@H](CCCC)C(=O)N[C@@H](CCCN)C(=O)N[C@H](C(=O)NCC(N)=O)CSCC(=O)N[C@@H](Cc2ccc(OC)cc2)C(=O)N(C)[C@@H](C)C(=O)N[C@@H](CC(N)=O)C(=O)N2CCC[C@H]2C(=O)N[C@@H](CN)C(=O)N[C@@H](CCC(=O)O)C(=O)N2C[C@H](O)C[C@H]2C(=O)N[C@@H](Cc2c[nH]c3ccccc23)C(=O)N[C@@H](CC(=O)O)C(=O)N[C@@H](Cc2c[nH]c3ccccc23)C(=O)N1C [Example 7100] ({CH2CO}-Y(Me)[NMeA]NP[Dap]E[Hyp]WDW[NMeNle][NMeNle][Orn]CG-NH2; thioether N-14)
1 to 9.9 nM | CCCC[C@H]1C(=O)N(C)[C@@H](CCCC)C(=O)N[C@@H](CCCN)C(=O)N[C@H](C(=O)NCC(N)=O)CSCC(=O)N[C@@H](Cc2ccc(OC)cc2)C(=O)N(C)[C@@H](C)C(=O)N[C@@H](CC(=O)O)C(=O)N2CCC[C@H]2C(=O)N[C@@H](CN)C(=O)N[C@@H](CCC(=O)O)C(=O)N2C[C@H](O)C[C@H]2C(=O)N[C@@H](Cc2c[nH]c3ccccc23)C(=O)N[C@@H](CC(=O)O)C(=O)N[C@@H](Cc2c[nH]c3ccccc23)C(=O)N1C [Example 7101] ({CH2CO}-Y(Me)[NMeA]DP[Dap]E[Hyp]WDW[NMeNle][NMeNle][Orn]CG-NH2; thioether N-14)
10 to 99.9 nM | CCCC[C@H]1C(=O)N(C)[C@@H](CCCC)C(=O)N[C@@H](CCCN)C(=O)N[C@H](C(=O)NCC(N)=O)CSCC(=O)N[C@@H](Cc2ccc(OC)cc2)C(=O)N(C)[C@@H](C)C(=O)N[C@@H](CCN)C(=O)N2CCC[C@H]2C(=O)N[C@@H](CN)C(=O)N[C@@H](CCCCN)C(=O)N2C[C@H](O)C[C@H]2C(=O)N[C@@H](Cc2c[nH]c3ccccc23)C(=O)N[C@@H](CCN)C(=O)N[C@@H](Cc2c[nH]c3ccccc23)C(=O)N1C [Example 7103] ({CH2CO}-Y(Me)[NMeA][Dab]P[Dap]K[Hyp]W[Dab]W[NMeNle][NMeNle][Orn]CG-NH2; thioether N-14)
10 to 99.9 nM | CCCC[C@H]1C(=O)N(C)[C@@H](CCCC)C(=O)N[C@@H](CCCN)C(=O)N[C@H](C(=O)NCC(N)=O)CSCC(=O)N[C@@H](Cc2ccc(OC)cc2)C(=O)N(C)[C@@H](C)C(=O)N[C@@H](CCN)C(=O)N2CCC[C@H]2C(=O)N[C@@H](Cc2cnc[nH]2)C(=O)N[C@@H](CCC(=O)O)C(=O)N2C[C@H](O)C[C@H]2C(=O)N[C@@H](Cc2c[nH]c3ccccc23)C(=O)N[C@@H](CC(=O)O)C(=O)N[C@@H](Cc2c[nH]c3ccccc23)C(=O)N1C [Example 7104] ({CH2CO}-Y(Me)[NMeA][Dab]PHE[Hyp]WDW[NMeNle][NMeNle][Orn]CG-NH2; thioether N-14)

— patent US10538555B2, “Macrocyclic inhibitors of the PD-1/PD-L1 and CD80(B7-1)/PD-L1 protein/protein interactions” (BRISTOL-MYERS SQUIBB COMPANY, priority 2014, dated 2020)
